Read-outs that look alike come from different tables or passages of the source.
Experiments:
GT3a NS3/4A protease = target: T1, GT3a NS3/4A protease (Hepatitis C virus genotype 3a, UniProt Q81495); assay: biochemical; details: for Ki (Fold change) GT3a NS3/4A Protease: Ki GT3a relative to GT1a WT
T1 construct: drug-resistant variant D168A, and GT3a NS3/4A protease; made in house; host or cells: Escherichia coli BL21(DE3)
Procedure: (§1) For each assay, 2 nM of NS3/4A protease (GT1, D168A and GT3) was pre-incubated at room temperature for 1 h with increasing concentration of inhibitors in assay buffer [50 mM Tris, 5% glycerol, 10 mM DTT, 0.6 mM LDAO, and 4% dimethyl sulfoxide]. Inhibition assays were performed in nonbinding surface 96-well black half-area plates (Corning) in a reaction volume of 60 μt. […] Three independent data sets were collected for each inhibitor with each protease construct.

[1] = tested on: HCV replicon D168A variant in Huh7 cells; assay: microbe, parasite or virus in culture; assay type: cell-based, Hepatitis C virus; details: for EC50: Hepatitis C virus; for Replicon EC50 (Fold change) D168A: Table 4, relative to WT replicon
Procedure: (§2) Mutations (R155K, A516T, D168A and D168V) were constructed by site-directed mutagenesis using a Con1 (genotype 1b) luciferase reporter replicon containing the H77 (genotype 1a) NS3 sequence.
(§3) Replicon RNA of each protease variant was introduced into Huh7 cells by electroporation. Replication was then assessed in the presence of increasing concentrations of protease inhibitors by measuring luciferase activity (relative light units) 96 h after electroporation.
(§4) Mutations (R155K, D168A and A156T) were constructed by site-directed mutagenesis using a Con1 (genotype 1b) luciferase reporter replicon containing the H77 (genotype 1a) NS3 sequence.^6 Replicon RNA of each protease variant was introduced into Huh7 cells by electroporation. Replication was then assessed in the presence of increasing concentrations of protease inhibitors by measuring luciferase activity (relative light units) 96 h after electroporation.

[2] = tested on: HCV replicon R155K variant in Huh7 cells; assay: microbe, parasite or virus in culture; assay type: cell-based, Hepatitis C virus; details: for EC50: Hepatitis C virus; for Replicon EC50 (Fold change) R155K: Table 4, relative to WT replicon
Procedure: as §2, §3, §4

[3] = tested on: HCV replicon A156T variant in Huh7 cells; assay: microbe, parasite or virus in culture; assay type: cell-based, Hepatitis C virus; details: for EC50: Hepatitis C virus; for Replicon EC50 (Fold change) A156T: Table 4, relative to WT replicon
Procedure: as §2, §3, §4

[4] = target: T2, wild-type GT1a NS3/4A protease (UniProt P27958, C1185S, species not given); assay type: biochemical, Hepatitis C virus; details: read-out: Ki (nM) GT1a WT NS3/4A Protease
T2 construct: Ki (nM) GT1a WT NS3/4A Protease
Procedure: as §1
as §1, with “(GT1a” for “(GT1, D168A”, “D168A)” for “GT3)”, “(50” for “[50”, “sulfoxide, pH 7.5).” for “sulfoxide].”, “non-binding” for “nonbinding”, “μL.” for “μt.”
(§5) For each assay, 2 nM of NS3/4A protease (GT1a, R155K and D168A) was pre-incubated at room temperature for 1 h with increasing concentration of inhibitors in assay buffer (50 mM Tris, 5% glycerol, 10 mM DTT, 0.6 mM LDAO, and 4% dimethyl sulfoxide, pH 7.5). Inhibition assays were performed in non-binding surface 96-well black half-area plates (Corning) in a reaction volume of 60 μL. […] Three independent data sets were collected for each inhibitor with each protease construct. […] Gibbs free energy of binding was calculated using the following equation: ΔG=RTlnKi

[5] = target: GT1a D168A NS3/4A protease; assay type: biochemical, Hepatitis C virus; details: Table 3; Ki D168A relative to GT1a WT
Procedure: as §1
(§6) For each assay, 2 nM of NS3/4A protease (GT1a and D168A) was pre-incubated at room temperature for 1 h with increasing concentration of inhibitors in assay buffer (50 mM Tris, 5% glycerol, 10 mM DTT, 0.6 mM LDAO, and 4% dimethyl sulfoxide, pH 7.5). Inhibition assays were performed in non-binding surface 96-well black half-area plates (Corning) in a reaction volume of 60 μL. […] Three independent data sets were collected for each inhibitor with each protease construct.
as §5

[6] = target: T3, GT1a D168A NS3/4A protease (UniProt P27958, C1185S/D1194A, species not given); assay type: biochemical, Hepatitis C virus; details: read-out: Ki (nM) GT1a D168A NS3/4A Protease
T3 construct: Ki (nM) GT1a D168A NS3/4A Protease
Procedure: as §1, §6, §5

[7] = tested on: wild-type HCV replicon in Huh7 cells; assay: Cell-based drug susceptibility (replicon) assay, wild-type; details: Hepatitis C virus, read-out: Replicon EC50 (nM) WT
Procedure: as §2, §3, §4

[8] = tested on: HCV replicon D168V variant in Huh7 cells; assay: microbe, parasite or virus in culture; assay type: cell-based, Hepatitis C virus; details: for EC50: Hepatitis C virus; for Replicon EC50 (Fold change) D168V: Table 4, relative to WT replicon
Procedure: as §2
Replicon RNA of each protease variant was introduced into Huh7 cells by electroporation. Replication was then assessed in the presence of increasing concentrations of protease inhibitors by measuring luciferase activity (relative light units) 96 h after electroporation. […]

[9] = Huh-7, 96 h, read-out: Replicon EC50 (nM) D168A, Table 2, Huh7 cells, luciferase 96 h
[10] = Huh-7, read-out: Replicon EC50 (nM) D168A, Table 4
[11] = Huh-7, 96 h, read-out: Replicon EC50 (nM) R155K, Table 2, Huh7 cells, luciferase 96 h
[12] = Huh-7, read-out: Replicon EC50 (nM) R155K, Table 4
[13] = Huh-7, 96 h, read-out: Replicon EC50 (nM) A156T, Table 2, Huh7 cells, luciferase 96 h
[14] = Huh-7, read-out: Replicon EC50 (nM) A156T, Table 4
[15] = Huh-7, 96 h, Table 2, Huh7 cells, luciferase 96 h
[16] = Huh-7, 96 h, read-out: Replicon EC50 (nM) D168V, Table 2, Huh7 cells, luciferase 96 h
[17] = Huh-7, read-out: Replicon EC50 (nM) D168V, Table 4

T1 sequence (Q81495 1033-1214): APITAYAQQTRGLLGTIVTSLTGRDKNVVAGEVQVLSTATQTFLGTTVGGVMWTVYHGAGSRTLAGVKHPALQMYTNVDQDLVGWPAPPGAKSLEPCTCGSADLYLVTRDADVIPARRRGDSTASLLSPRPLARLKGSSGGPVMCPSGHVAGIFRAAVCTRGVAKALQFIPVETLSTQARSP

Compound | Ki (GT3a NS3/4A protease) | Ki (Fold change) GT3a NS3/4A Protease (GT3a NS3/4A protease; Table 3) | EC50 [1, 9] | EC50 [1, 10] | Replicon EC50 (Fold change) D168A [1] | EC50 [2, 11] | EC50 [2, 12] | Replicon EC50 (Fold change) R155K [2] | EC50 [3, 13] | EC50 [3, 14] | Replicon EC50 (Fold change) A156T [3] | Ki ([4]; Table 1) | Ki ([4]; Table 3) | Ki (Fold change) GT1a D168A NS3/4A Protease [5] | Ki ([6]; Table 1) | Ki ([6]; Table 3) | EC50 [7, 15] | EC50 ([7]; Huh-7, Table 4) | EC50 [8, 16] | EC50 [8, 17] | other results
COc1ccc2nc(C(F)(F)F)c(O[C@@H]3C[C@H]4C(=O)N[C@]5(C(=O)NS(=O)(=O)C6CC6)C[C@H]5/C=C\CCCCC[C@H](NC(=O)OC(C)(C)C)C(=O)N4C3)nc2c1 [Compound 18d] | 344 nM | (26) fold | 16.8 nM | 16.8 nM | (8) fold | 3.45 nM | 3.45 nM | (2) fold | 36.2 nM | 36.2 nM | (18) fold | 13.3 nM | 13.3 nM | (12) fold | 157 nM | 157 ± 12 nM | 1.98 nM | 1.98 nM | 17.1 nM | 17.1 nM | Replicon EC50 (Fold change) D168V [8]: (9) fold
COc1ccc2nc(C(F)(F)F)c(O[C@@H]3C[C@H]4C(=O)N[C@]5(C(=O)NS(=O)(=O)C6(C)CC6)C[C@H]5/C=C\CCCCC[C@H](NC(=O)OC(C)(C)C)C(=O)N4C3)nc2c1 [Compound 19d, tert-Butyl ((2R,6S,13aS,14aR,16aS,Z)-2-((7-methoxy-3-(trifluoromethyl)quinoxalin-2-yl)oxy)-14a-(((1-methylcyclopropyl)sulfonyl)carbamoyl)-5,16-dioxo-1,2,3,5,6,7,8,9,10,11,13a,14,14a,15,16,16a-hexadecahydrocyclopropa[e]pyrrolo[1,2-a][1,4]diazacyclopentadecin-6-yl)carbamate] | 231 nM | (40) fold | 8.64 nM | 8.64 nM | (6) fold | 2.3 nM | 2.3 nM | (2) fold | 20.5 nM | 20.5 nM | (13) fold | 5.77 nM | 5.77 nM | (20) fold | 118 nM | 118 ± 13 nM | 1.52 nM | 1.52 nM | 8.31 nM | 8.31 nM | Ki (GT3a NS3/4A protease; read-out: Ki (nM) GT3a NS3/4A Protease, Table 3): 231 ± 74 nM; Replicon EC50 (Fold change) D168V [8]: (5) fold
CCc1nc2ccc(OC)cc2nc1O[C@@H]1C[C@H]2C(=O)N[C@]3(C(=O)NS(=O)(=O)C4CC4)C[C@H]3/C=C\CCCCC[C@H](NC(=O)OC3CCCC3)C(=O)N2C1 [Compound 22a, Cyclopentyl ((2R,6S,13aS,14aR,16aS,Z)-14a-((cyclopropylsulfonyl)carbamoyl)-2-((3-ethyl-7-methoxyquinoxalin-2-yl)oxy)-5,16-dioxo-1,2,3,5,6,7,8,9,10,11,13a,14,14a,15,16,16a-hexadecahydrocyclopropa[e]pyrrolo[1,2-a][1,4]diazacyclopentadecin-6-yl)carbamate] | 211 nM | (170) fold | 3.6 nM | 3.6 nM | (26) fold | 2.08 nM | 2.08 nM | (15) fold | 11.8 nM | 11.8 nM | (84) fold | 1.24 nM | 1.24 nM | (42) fold | 52.3 nM | 52.3 ± 3.2 nM | 0.14 nM | 0.14 nM | 11.9 nM | 11.9 nM | Replicon EC50 (Fold change) D168V [8]: (85) fold
COc1ccc2nc(C)c(O[C@@H]3C[C@H]4C(=O)N[C@]5(C(=O)NS(=O)(=O)C6CC6)C[C@H]5/C=C\CCCCC[C@H](NC(=O)OC5CCCC5)C(=O)N4C3)nc2c1 [Compound 22b, Cyclopentyl ((2R,6S,13aS,14aR,16aS,Z)-14a-((cyclopropylsulfonyl)carbamoyl)-2-((7-methoxy-3-methylquinoxalin-2-yl)oxy)-5,16-dioxo-1,2,3,5,6,7,8,9,10,11,13a,14,14a,15,16,16a-hexadecahydrocyclopropa[e]pyrrolo[1,2-a][1,4]diazacyclopentadecin-6-yl)carbamate] | 147 nM | (158) fold | 2.63 nM | 2.63 nM | (24) fold | 0.89 nM | 0.89 nM | (8) fold | 2.88 nM | 2.88 nM | (26) fold | 0.93 nM | 0.93 nM | (34) fold | 31.9 nM | 31.9 ± 2.5 nM | 0.11 nM | 0.11 nM | 4.32 nM | 4.32 nM | Replicon EC50 (Fold change) D168V [8]: (39) fold
COc1ccc2nc(C)c(O[C@@H]3C[C@H]4C(=O)N[C@]5(C(=O)NS(=O)(=O)C6(C)CC6)C[C@H]5/C=C\CCCCC[C@H](NC(=O)OC5CCCC5)C(=O)N4C3)nc2c1 [Compound 23b, Cyclopentyl ((2R,6S,13aS,14aR,16aS,Z)-2-((7-methoxy-3-methylquinoxalin-2-yl)oxy)-14a-(((1-methylcyclopropyl)sulfonyl)carbamoyl)-5,16-dioxo-1,2,3,5,6,7,8,9,10,11,13a,14,14a,15,16,16a-hexadecahydrocyclopropa[e]pyrrolo[1,2-a][1,4]diazacyclopentadecin-6-yl)carbamate] | 121 nM |  | 2.16 nM | 2.16 nM |  | 1.09 nM | 1.09 nM |  | 3.99 nM | 3.99 nM |  | 1.13 nM | 1.13 nM |  | 36.3 nM | 36.3 ± 1.8 nM | 0.13 nM | 0.13 nM |  |  | 
